# Laboratory results published in the NIST ThermoML archive (doi:10.1016/j.fluid.2005.12.004).
# Numbers after ± are expanded uncertainties.
# Settings: Liquid, Closed cell (Static) method
smiles,measurement,setting,value
FC(F)(F)C(F)(F)F [hexafluoroethane],vapor or sublimation pressure,189.31 K,73.9 ± 4 kPa
same,vapor or sublimation pressure,192.63 K,88.5 ± 4 kPa
same,vapor or sublimation pressure,247.63 K,883 ± 4.8 kPa
same,vapor or sublimation pressure,252.8 K,1038.2 ± 5 kPa
